Measured values taken from patent US10435399B2, “HDAC6 inhibitory heterocyclic compound” (TAKEDA PHARMACEUTICAL COMPANY LIMITED, priority 2017, dated 2019).

The compounds below were run against T1, HDAC6 enzyme (Homo sapiens, UniProt Q9UBN7) (assay: HDAC6 enzyme inhibitory activity (HDAC-Glo I/II Assay kit)). Conditions: 10 μM; wells without enzyme = 100% inhibition; read-out: HDAC6 inhibitory rate (%) (10 μM).
T1 construct: transducing full length HDAC6 gene into Sf-9 insect cells; GST; purchased SignalChem; host or cells: Sf-9 insect cells
T1 sequence (Q9UBN7 1-1215): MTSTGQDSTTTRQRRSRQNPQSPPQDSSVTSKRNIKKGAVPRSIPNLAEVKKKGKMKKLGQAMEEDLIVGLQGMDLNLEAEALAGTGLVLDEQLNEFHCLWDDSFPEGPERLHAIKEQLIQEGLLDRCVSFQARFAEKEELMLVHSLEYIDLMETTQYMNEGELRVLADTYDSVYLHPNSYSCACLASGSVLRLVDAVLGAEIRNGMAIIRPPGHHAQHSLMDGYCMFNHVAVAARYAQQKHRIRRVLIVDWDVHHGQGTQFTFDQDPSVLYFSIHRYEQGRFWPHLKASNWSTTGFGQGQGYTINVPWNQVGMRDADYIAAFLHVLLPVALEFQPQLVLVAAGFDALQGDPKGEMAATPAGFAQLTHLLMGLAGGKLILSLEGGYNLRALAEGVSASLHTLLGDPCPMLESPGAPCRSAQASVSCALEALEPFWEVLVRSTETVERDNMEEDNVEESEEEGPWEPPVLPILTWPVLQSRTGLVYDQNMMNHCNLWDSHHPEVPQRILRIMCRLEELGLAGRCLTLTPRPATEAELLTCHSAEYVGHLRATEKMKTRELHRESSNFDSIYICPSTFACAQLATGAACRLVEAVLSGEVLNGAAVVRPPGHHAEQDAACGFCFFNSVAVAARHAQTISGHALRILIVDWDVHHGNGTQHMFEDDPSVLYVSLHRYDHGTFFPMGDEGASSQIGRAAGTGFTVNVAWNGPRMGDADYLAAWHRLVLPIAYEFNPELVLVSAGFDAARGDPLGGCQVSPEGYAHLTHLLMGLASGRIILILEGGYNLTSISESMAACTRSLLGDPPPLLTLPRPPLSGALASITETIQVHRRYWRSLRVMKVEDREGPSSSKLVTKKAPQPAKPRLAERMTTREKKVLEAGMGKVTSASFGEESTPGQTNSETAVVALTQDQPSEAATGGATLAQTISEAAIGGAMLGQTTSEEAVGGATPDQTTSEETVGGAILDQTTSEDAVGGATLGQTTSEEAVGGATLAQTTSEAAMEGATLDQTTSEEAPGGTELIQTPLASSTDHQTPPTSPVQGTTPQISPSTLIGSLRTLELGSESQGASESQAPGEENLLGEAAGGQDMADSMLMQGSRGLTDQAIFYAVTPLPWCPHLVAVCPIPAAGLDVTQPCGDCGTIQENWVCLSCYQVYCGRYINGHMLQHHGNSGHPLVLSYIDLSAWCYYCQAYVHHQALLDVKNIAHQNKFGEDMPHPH
Format: biochemical
Procedure, shortened: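 Luminescent HDAC-Glo I/II readout after 20 min room-temperature reaction with substrate-developer, following 60 min compound–enzyme preincubation. Enzyme: full-length HDAC6 from Sf-9 cells, GST-purified; buffer 24 mM Tris-HCl pH 7.5, 0.01% Tween-20, glutathione, salts. Wells lacking enzyme define 100% inhibition.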

| Compound | inhibition at 10 µM |
| --- | --- |
| Cn1cc(-c2cc(F)ccc2N2Cc3c(F)cc(-c4nnc(C(F)F)o4)cc3C2=O)cn1 [Example 382, 6-(5-(difluoro-methyl)-1,3,4-oxadiazol-2-yl)-4-fluoro-2-(4-fluoro-2-(1-methyl-1H-pyrazol-4-yl)phenyl) isoindolin-1-one] | 98% |
| O=C1c2cc(-c3nnc(C(F)F)o3)cc(F)c2CN1c1ccc(F)cc1-c1cccc(F)c1 [Example 383, 2-(3′,5-difluoro-biphenyl-2-yl)-6-(5-(difluoro-methyl)-1,3,4-oxadiazol-2-yl)-4-fluoroiso-indolin-1-one] | 95% |
| Cn1cc(-c2cccc(F)c2)c(N2Cc3ccc(-c4nnc(C(F)F)o4)cc3C2=O)n1 [Example 384, 6-(5-(difluoro-methyl)-1,3,4-oxadiazol-2-yl)-2-(4-(3-fluoro-phenyl)-1-methyl-1H-pyrazol-3-yl) isoindolin-1-one] | 99% |
| O=C1c2cc(-c3nnc(C(F)F)o3)ccc2CN1c1ccc(F)cc1-c1cnn(C(F)F)c1 [Example 385, 6-(5-(difluoro-methyl)-1,3,4-oxadiazol-2-yl)-2-(2-(1-(difluoro-methyl)-1H-pyrazol-4-yl)-4-fluorophenyl) isoindolin-1-one] | 101% |
| O=C1c2cc(-c3nnc(C(F)F)o3)ccc2CN1c1ccc(F)cc1-c1cccc(F)c1 [Example 386, 2-(3′,5-difluoro-biphenyl-2-yl)-6-(5-(difluoro-methyl)-1,3,4-oxadiazol-2-yl) isoindolin-1-one] | 101% |
| O=C1c2cc(-c3nnc(C(F)F)o3)ccc2CN1c1cccnc1-c1cnn(C(F)F)c1 [Example 387, 6-(5-(difluoro-methyl)-1,3,4-oxadiazol-2-yl)-2-(2-(1-(difluoro-methyl)-1H-pyrazol-4-yl)pyridin-3-yl) isoindolin-1-one] | 101% |
| Cn1nc(C(F)(F)F)cc1-c1cc(F)ccc1N1Cc2c(F)cc(-c3nnc(C(F)F)o3)cc2C1=O [Example 388, 6-(5-(difluoro-methyl)-1,3,4-oxadiazol-2-yl)-4-fluoro-2-(4-fluoro-2-(1-methyl-3-(trifluoro-methyl)-1H-pyrazol-5-yl)phenyl) isoindolin-1-one] | 101% |
| Cn1nc(C(F)(F)F)cc1-c1cc(F)ccc1N1Cc2ccc(-c3nnc(C(F)F)o3)cc2C1=O [Example 389, 6-(5-(difluoro-methyl)-1,3,4-oxadiazol-2-yl)-2-(4-fluoro-2-(1-methyl-3-(trifluoro-methyl)-1H-pyrazol-5-yl)phenyl) isoindolin-1-one] | 101% |
| O=C1c2cc(-c3nnc(C(F)F)o3)cc(F)c2CN1c1ccccc1-c1cnn(C(F)F)c1 [Example 390, 6-(5-(difluoro-methyl)-1,3,4-oxadiazol-2-yl)-2-(2-(1-(difluoro-methyl)-1H-pyrazol-4-yl)phenyl)-4-fluoroisoindolin-1-one] | 100% |
| N#Cc1cccc(-c2ncccc2N2Cc3ccc(-c4nnc(C(F)F)o4)cc3C2=O)c1 [Example 391, 3-(3-(6-(5-(difluoromethyl)-1,3,4-oxadiazol-2-yl)-1-oxo-1,3-dihydro-2H-isoindol-2-yl)pyridin-2-yl) benzonitrile] | 100% |
| Cn1cc(-c2ccccc2N2Cc3c(F)cc(-c4nnc(C(F)F)o4)cc3C2=O)cn1 [Example 392, 6-(5-(difluoro-methyl)-1,3,4-oxadiazol-2-yl)-4-fluoro-2-(2-(1-methyl-1H-pyrazol-4-yl)phenyl) isoindolin-1-one] | 99% |
| O=C1c2cc(-c3nnc(C(F)F)o3)cc(F)c2CN1c1ccccc1-c1cccc(F)c1 [Example 393, 6-(5-(difluoro-methyl)-1,3,4-oxadiazol-2-yl)-4-fluoro-2-(3′-fluorobiphenyl-2-yl)isoindolin-1-one] | 99% |

Now from value to compound:

| inhibition at 10 µM | Compound |
| --- | --- |
| 99% | Cn1nc(C(F)(F)F)cc1-c1ccccc1N1Cc2c(F)cc(-c3nnc(C(F)F)o3)cc2C1=O [Example 394, 6-(5-(difluoro-methyl)-1,3,4-oxadiazol-2-yl)-4-fluoro-2-(2-(1-methyl-3-(trifluoro-methyl)-1H-pyrazol-5-yl)phenyl) isoindolin-1-one] |
| 99% | O=C1c2cc(-c3nnc(C(F)F)o3)cnc2CN1Cc1cccc(OC(F)F)c1 [Example 395, 6-(3-(difluoro-methoxy)benzyl)-3-(5-(difluoro-methyl)-1,3,4-oxadiazol-2-yl)-6,7-dihydro-5H-pyrrolo [3,4-b]pyridin-5-one] |
| 101% | O=C1c2cc(-c3nnc(C(F)F)o3)ccc2CN1c1cccc(F)c1-c1cnn(C(F)F)c1 [Example 396, 6-(5-(difluoro-methyl)-1,3,4-oxadiazol-2-yl)-2-(2-(1-(difluoromethyl)-1H-pyrazol-4-yl)-3-fluorophenyl) isoindolin-1-one] |
| 100% | O=C1c2cc(-c3nnc(C(F)F)o3)ccc2CN1c1cccc(F)c1-c1cccc(Cl)c1 [Example 397, 2-(3′-chloro-6-fluorobiphenyl-2-yl)-6-(5-(difluoro-methyl)-1,3,4-oxadiazol-2-yl) isoindolin-1-one] |
| 102% | O=C1c2cc(-c3nnc(C(F)F)o3)ccc2CN1c1cccc(F)c1-c1cccc(F)c1 [Example 398, 2-(3′,6-difluoro-biphenyl-2-yl)-6-(5-(difluoro-methyl)-1,3,4-oxadiazol-2-yl) isoindolin-1-one] |
| 101% | O=C1c2cc(-c3nnc(C(F)F)o3)ccc2CN1[C@@H]1CCOC[C@H]1NCC(F)(F)F [Example 399, 6-(5-(difluoromethyl)-1,3,4-oxadiazol-2-yl)-2-((3S,4R)-3-((2,2,2-trifluoroethyl)amino)tetrahydro-2H-pyran-4-yl)isoindolin-1-one] |
| 99% | O=C1c2cc(-c3nnc(C(F)F)o3)cnc2CN1[C@@H]1CCOC[C@H]1NCC(F)(F)F [Example 400, 3-(5-(difluoro-methyl)-1,3,4-oxadiazol-2-yl)-6-((3S,4R)-3-((2,2,2-trifluoro-ethyl)amino)tetrahydro-2H-pyran-4-yl)-6,7-dihydro-5H-pyrrolo[3,4-b] pyridin-5-one] |
| 99% | N#Cc1cccc(-c2c(Cl)cccc2N2Cc3ccc(-c4nnc(C(F)F)o4)cc3C2=O)c1 [Example 401, 2′-chloro-6′-(6-(5-(difluoro-methyl)-1,3,4-oxadiazol-2-yl)-1-oxo-1,3-dihydro-2H-isoindol-2-yl) biphenyl-3-carbonitrile] |
| 100% | O=C1c2cc(-c3nnc(C(F)F)o3)ccc2CN1c1cccc(Cl)c1-c1cnn(C(F)F)c1 [Example 402, 2-(3-chloro-2-(1-(difluoro-methyl)-1H-pyrazol-4-yl)phenyl)-6-(5-(difluoro-methyl)-1,3,4-oxadiazol-2-yl) isoindolin-1-one] |
| 102% | Cn1cc(-c2c(Cl)cccc2N2Cc3ccc(-c4nnc(C(F)F)o4)cc3C2=O)cn1 [Example 403, 2-(3-chloro-2-(1-methyl-1H-pyrazol-4-yl)phenyl)-6-(5-(difluoro-methyl)-1,3,4-oxadiazol-2-yl) isoindolin-1-one] |
| 100% | O=C1c2cc(-c3nnc(C(F)F)o3)ccc2CN1c1cccc(Cl)c1-c1cccc(F)c1 [Example 404, 2-(6-chloro-3′-fluoro-biphenyl-2-yl)-6-(5-(difluoro-methyl)-1,3,4-oxadiazol-2-yl) isoindolin-1-one] |
| 101% | O=C1c2cc(-c3nnc(C(F)F)o3)ccc2CN1c1ccc(Cl)cc1-c1cnn(C(F)F)c1 [Example 405, 2-(4-chloro-2-(1-(difluoro-methyl)-1H-pyrazol-4-yl)phenyl)-6-(5-(difluoro-methyl)-1,3,4-oxadiazol-2-yl) isoindolin-1-one] |
| 100% | O=C1c2cc(-c3nnc(C(F)F)o3)cnc2CN1c1ccc(F)cc1Br [Example 406, 6-(2-bromo-4-fluorophenyl)-3-(5-(difluoromethyl)-1,3,4-oxadiazol-2-yl)-6,7-dihydro-5H-pyrrolo[3,4-b]pyridin-5-one] |
